The values that follow come from US20230233477A1, “Bi2O3 NANOPARTICLES PREPARED BY THE TOP-DOWN ULTRASONICATION ROUTE AS A BROAD-[sequence] ANTIMICROBIAL TO OVERCOME DRUG RESISTANCE IN ANTIBIOTICS” (KENT STATE UNIVERSITY, priority 2022, published 2023).

One experiment relates to PA. The format is cell-based, Pseudomonas aeruginosa. Particulars: sub-lethal concentration, after 13 days. As to the method: Drug resistance study. The MIC was determined using a broth dilution method. […] The as-prepared bacterial solutions were incubated at 37° C. for 24 h. After incubation, the MIC was determined as the lowest concentration that inhibited visible growth of the tested microorganisms with unaided eyes. This same procedure was done by serial passaging of the bacteria until 30 days. Later on, three types of mutant DSPA were prepared by treating with Ag NPs, ciprofloxacin and meropenem for 15 days.

The subject of the next experiment is DRPA (BAA-2108). Kind of experiment: Checkerboard assay with meropenem against DRPA. The experiment is classed as cell-based. To be noted: Pseudomonas aeruginosa, BAA2108, single agent. The protocol:
The degree of synergism was determined using a checkerboard assay in a 96-well plate (FIG. 4b). […] Combinations of the two treatments were prepared using the 2-fold dilution method to determine the fractional inhibitory concentration (FIC; Table S2). The FIC index is used to determine whether two treatments are synergistic (χ≤0.5), additive (0.5<χ<4) or antagonistic (χ≥4).^38 Checkerboard assay.

Structures are written as SMILES.

For the compound `O=C(O)c1cn(C2CC2)c2cc(N3CCNCC3)c(F)cc2c1=O` [ciprofloxacin], the “MIC increase (fold)” value against PA is recorded as 32 fold.
As for `C[C@@H](O)[C@H]1C(=O)N2C(C(=O)O)=C(S[C@@H]3CN[C@H](C(=O)N(C)C)C3)[C@H](C)[C@H]12` [meropenem], the minimal inhibitory concentration (MIC) in the experiment on DRPA (BAA-2108) was determined as 2 µg/mL.
